The NIST ThermoML archive (doi:10.1016/j.fluid.2016.08.035)

Columns and labels:
[1] = molar heat capacity at constant pressure; xn = mol fraction of the nth substance listed; conditions: 101 kPa, Liquid, DSC
[2] = xn = mol fraction of the nth substance listed; conditions: 101 kPa, Liquid; for viscosity: Falling or rolling sphere viscometry; for speed of sound: Sing-around technique in a fixed-path interferometer; for mass density: Vibrating tube method

CC12CCC(CC1)C(C)(C)O2 [1,3,3-trimethyl-2-oxabicyclo[2.2.2]octane] + CCCCCC
Conditions	mass density, [2] [kg/m3]	molar heat capacity at constant pressure, [1] [J/K/mol]	speed of sound, [2] [m/s]	viscosity, [2] [mPa·s]
278.15 K, x1 = 0.1043	708.22	194.63	1188.8	0.47
278.15 K, x1 = 0.2069	740.59	200.97	1208.4	0.57
278.15 K, x1 = 0.2965	767.3	206.77	1225.8	0.68
278.15 K, x1 = 0.4005	796.7	213.53	1246.1	0.83
278.15 K, x1 = 0.4991	823.02	220.18	1265.3	1.03
278.15 K, x1 = 0.5999	848.56	227.2	1284.8	1.28
278.15 K, x1 = 0.6995	872.46	234.25	1304	1.66
278.15 K, x1 = 0.8005	895.28	241.41	1322.8	2.19
278.15 K, x1 = 0.8985	916.39	248.64	1341	2.93
278.15 K, x1 = 1	937.25	256.14	1359.6	4.21
298.15 K, x1 = 0.1043	690.43	201.78	1099.9	0.39
298.15 K, x1 = 0.2069	722.9	208.67	1121.2	0.46
298.15 K, x1 = 0.2965	749.7	214.95	1139.8	0.53
298.15 K, x1 = 0.4005	779.19	222.29	1161.4	0.64
298.15 K, x1 = 0.4991	805.59	229.41	1181.5	0.77
298.15 K, x1 = 0.5999	831.19	236.9	1201.8	0.93
298.15 K, x1 = 0.6995	855.13	244.43	1221.6	1.16
298.15 K, x1 = 0.8005	878	252.03	1241.3	1.48
298.15 K, x1 = 0.8985	899.14	259.73	1260	1.9
298.15 K, x1 = 1	920.04	267.69	1278.4	2.6
318.15 K, x1 = 0.1043	672.12	209.13	1012.6	0.34
318.15 K, x1 = 0.2069	704.78	216.45	1035.9	0.38
318.15 K, x1 = 0.2965	731.74	223.08	1055.9	0.43
318.15 K, x1 = 0.4005	761.37	230.81	1078.8	0.51
318.15 K, x1 = 0.4991	787.91	238.36	1100.2	0.6
318.15 K, x1 = 0.5999	813.62	246.29	1121.5	0.71
318.15 K, x1 = 0.6995	837.67	254.22	1142.2	0.86
318.15 K, x1 = 0.8005	860.63	262.24	1162.8	1.06
318.15 K, x1 = 0.8985	881.86	270.35	1182.4	1.32
318.15 K, x1 = 1	902.84	278.65	1201	1.73
338.15 K, x1 = 0.1043	653.14	216.81	926.7	0.3
338.15 K, x1 = 0.2069	685.99	224.63	952.68	0.34
338.15 K, x1 = 0.2965	713.31	231.59	974.13	0.38
338.15 K, x1 = 0.4005	743.17	239.8	998.9	0.43
338.15 K, x1 = 0.4991	769.91	247.71	1021.5	0.49
338.15 K, x1 = 0.5999	795.8	256.09	1044.1	0.57
338.15 K, x1 = 0.6995	819.99	264.46	1065.7	0.68
338.15 K, x1 = 0.8005	843.1	272.99	1087	0.82
338.15 K, x1 = 0.8985	864.46	281.61	1107.2	0.99
338.15 K, x1 = 1	885.57	290.33	1126.7	1.27
